Patent publication US20260021103A1, “IKZF2 AND CK1-ALPHA DEGRADING COMPOUNDS AND USES THEREOF” (President and Fellows of Harvard College, priority 2022, published 2026)

How the values were obtained:
IKZF1 = target: T1, IKZF1 (Homo sapiens, UniProt Q13422+Q96SW2); assay: Flow cytometry for measuring degradation, HEK293T GFP-POI reporter cells (IKZF1); format: cell-based; conditions: for IKZF1% degradation at 100 nM / IKZF1% degradation at 1 μM: 24 h, HEK293T GFP reporter; for Dmax: HEK-293T
T1 construct: expressed in transfected cells; host or cells: HEK293T (lentiviral transduction, puromycin selection, FACS sorting)

IKZF2 = target: T2, IKZF2 (Homo sapiens, UniProt Q96SW2+Q9UKS7); assay: Flow cytometry for measuring degradation, HEK293T GFP-POI reporter cells (IKZF2); format: cell-based; conditions: for IKZF2% degradation at 100 nM / IKZF2% degradation at 1 μM: 24 h, HEK293T GFP reporter; for Dmax: HEK-293T; for Dmax / DC50: Table 3
T2 construct: expressed in transfected cells; host or cells: HEK293T (lentiviral transduction, puromycin selection, FACS sorting)

CK1α = target: T3, CK1α (Homo sapiens, UniProt P48729+Q96SW2); assay: Flow cytometry for measuring degradation, HEK293T GFP-POI reporter cells (CK1α); format: cell-based; conditions: for CK1α % degradation at 100 nM / CK1α % degradation at 1 μM: 24 h, HEK293T GFP reporter; for Dmax: CK1, read-out: Dmax CK1a (%); for Dmax / DC50: Table 3; for DC50: read-out: DC50 CK1a
T3 construct: expressed in transfected cells; host or cells: HEK293T (lentiviral transduction, puromycin selection, FACS sorting)

CK1α and/or IKZF2 = assay: Panel of reporter cell lines (HEK293T cells expressing protein tagged with eGFP), substrate scope; format: cell-based; conditions: 100 nM or 1 μM
GSPT1 = GSPT1 (Homo sapiens, UniProt P15170+Q96SW2); assay: Flow cytometry for measuring degradation, HEK293T GFP-POI reporter cells (GSPT1); format: cell-based; design: expressed in transfected cells; host or cells: HEK293T; conditions: for GSPT1% degradation at 100 nM / GSPT1% degradation at 1 μM: 24 h, HEK293T GFP reporter; for Dmax: HEK-293T
[1] = In vitro solubility in DMSO; format: physicochemical; conditions: DMSO, organic solvent or mixture

T3 sequence (P48729 whole entry): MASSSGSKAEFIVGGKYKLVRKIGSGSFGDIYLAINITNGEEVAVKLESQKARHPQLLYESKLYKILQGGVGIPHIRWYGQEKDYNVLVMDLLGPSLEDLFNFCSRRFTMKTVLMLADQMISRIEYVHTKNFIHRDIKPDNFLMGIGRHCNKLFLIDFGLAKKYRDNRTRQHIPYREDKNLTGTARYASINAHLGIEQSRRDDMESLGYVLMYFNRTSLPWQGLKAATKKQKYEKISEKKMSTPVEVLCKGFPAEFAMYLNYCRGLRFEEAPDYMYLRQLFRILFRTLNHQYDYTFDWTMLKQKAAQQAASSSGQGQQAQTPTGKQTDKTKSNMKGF
T3 sequence (Q96SW2 whole entry): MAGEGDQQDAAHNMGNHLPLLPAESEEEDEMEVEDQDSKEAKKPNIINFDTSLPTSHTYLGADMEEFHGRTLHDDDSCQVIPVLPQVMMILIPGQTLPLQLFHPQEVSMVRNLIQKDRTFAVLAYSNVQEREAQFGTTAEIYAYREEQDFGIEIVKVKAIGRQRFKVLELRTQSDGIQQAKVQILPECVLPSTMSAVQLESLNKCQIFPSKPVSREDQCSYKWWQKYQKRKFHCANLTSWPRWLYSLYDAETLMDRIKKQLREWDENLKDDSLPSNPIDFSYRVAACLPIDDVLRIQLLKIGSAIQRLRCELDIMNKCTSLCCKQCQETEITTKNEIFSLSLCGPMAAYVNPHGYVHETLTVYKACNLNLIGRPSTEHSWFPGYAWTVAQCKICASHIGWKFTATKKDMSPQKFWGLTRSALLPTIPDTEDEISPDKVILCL
T3 sequence (Q16531 whole entry partner): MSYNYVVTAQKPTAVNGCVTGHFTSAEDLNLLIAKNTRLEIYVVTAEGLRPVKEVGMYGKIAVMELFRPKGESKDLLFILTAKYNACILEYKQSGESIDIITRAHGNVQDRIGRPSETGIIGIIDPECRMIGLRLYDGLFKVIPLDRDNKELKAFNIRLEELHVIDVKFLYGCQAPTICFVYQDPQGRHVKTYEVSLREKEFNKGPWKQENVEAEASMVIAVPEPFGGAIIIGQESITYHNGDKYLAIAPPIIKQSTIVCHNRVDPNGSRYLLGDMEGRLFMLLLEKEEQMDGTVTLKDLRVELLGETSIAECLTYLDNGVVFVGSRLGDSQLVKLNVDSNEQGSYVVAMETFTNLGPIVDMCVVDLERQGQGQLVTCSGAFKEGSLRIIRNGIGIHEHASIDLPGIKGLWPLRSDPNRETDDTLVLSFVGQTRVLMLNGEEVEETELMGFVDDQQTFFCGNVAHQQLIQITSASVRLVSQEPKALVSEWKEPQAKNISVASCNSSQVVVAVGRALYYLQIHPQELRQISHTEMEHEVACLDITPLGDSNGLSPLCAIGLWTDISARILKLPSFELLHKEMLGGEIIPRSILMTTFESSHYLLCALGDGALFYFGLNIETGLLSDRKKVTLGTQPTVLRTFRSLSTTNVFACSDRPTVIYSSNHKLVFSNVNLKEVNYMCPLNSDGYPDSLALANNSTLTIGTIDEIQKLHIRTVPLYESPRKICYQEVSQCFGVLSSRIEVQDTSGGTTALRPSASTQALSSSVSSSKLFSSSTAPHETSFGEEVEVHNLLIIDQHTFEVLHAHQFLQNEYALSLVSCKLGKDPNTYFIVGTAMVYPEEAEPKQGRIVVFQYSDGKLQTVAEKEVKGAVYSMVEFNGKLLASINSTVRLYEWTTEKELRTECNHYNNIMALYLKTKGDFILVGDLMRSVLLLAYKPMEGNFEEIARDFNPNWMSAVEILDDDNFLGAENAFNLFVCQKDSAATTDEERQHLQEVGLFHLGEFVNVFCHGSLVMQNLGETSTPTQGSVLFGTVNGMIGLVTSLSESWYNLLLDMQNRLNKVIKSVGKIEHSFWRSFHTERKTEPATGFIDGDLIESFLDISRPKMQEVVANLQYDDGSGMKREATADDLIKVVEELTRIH
T1 sequence (Q13422 whole entry): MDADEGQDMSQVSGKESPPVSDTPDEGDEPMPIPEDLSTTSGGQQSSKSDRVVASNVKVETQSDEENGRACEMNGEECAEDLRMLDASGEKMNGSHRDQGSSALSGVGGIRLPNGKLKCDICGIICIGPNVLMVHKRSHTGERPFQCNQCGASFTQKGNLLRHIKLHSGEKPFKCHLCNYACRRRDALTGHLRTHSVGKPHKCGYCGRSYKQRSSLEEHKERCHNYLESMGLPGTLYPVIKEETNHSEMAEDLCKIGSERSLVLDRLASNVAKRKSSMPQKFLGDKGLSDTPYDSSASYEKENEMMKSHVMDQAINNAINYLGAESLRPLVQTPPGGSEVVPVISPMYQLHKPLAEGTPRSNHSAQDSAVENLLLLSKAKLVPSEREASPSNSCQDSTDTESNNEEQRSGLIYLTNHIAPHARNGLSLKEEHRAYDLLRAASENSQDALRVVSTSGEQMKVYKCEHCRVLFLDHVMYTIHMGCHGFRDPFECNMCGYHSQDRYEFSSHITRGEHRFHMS
T1 sequence (Q96SW2 whole entry): as the sequence (Q96SW2 whole entry) above
T1 sequence (Q16531 whole entry partner): as the sequence (Q16531 whole entry partner) above
Sequence of GSPT1 (P15170 whole entry): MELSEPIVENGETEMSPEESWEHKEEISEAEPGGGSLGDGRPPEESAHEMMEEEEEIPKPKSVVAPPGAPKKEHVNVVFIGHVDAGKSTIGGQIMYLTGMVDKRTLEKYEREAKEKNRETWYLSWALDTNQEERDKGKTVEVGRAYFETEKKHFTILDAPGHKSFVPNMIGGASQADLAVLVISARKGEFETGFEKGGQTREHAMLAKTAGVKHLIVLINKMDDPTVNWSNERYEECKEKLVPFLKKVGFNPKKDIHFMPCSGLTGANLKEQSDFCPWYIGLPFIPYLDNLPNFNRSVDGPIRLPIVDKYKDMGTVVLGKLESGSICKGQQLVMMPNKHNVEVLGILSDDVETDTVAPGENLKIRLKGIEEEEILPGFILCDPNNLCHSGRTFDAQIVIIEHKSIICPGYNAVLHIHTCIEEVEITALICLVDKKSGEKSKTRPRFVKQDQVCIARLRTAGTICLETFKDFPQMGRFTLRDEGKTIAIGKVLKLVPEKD
Sequence of GSPT1 (Q96SW2 whole entry): as the sequence (Q96SW2 whole entry) above
Sequence of GSPT1 (Q16531 whole entry partner): as the sequence (Q16531 whole entry partner) above
T2 sequence (Q9UKS7 whole entry): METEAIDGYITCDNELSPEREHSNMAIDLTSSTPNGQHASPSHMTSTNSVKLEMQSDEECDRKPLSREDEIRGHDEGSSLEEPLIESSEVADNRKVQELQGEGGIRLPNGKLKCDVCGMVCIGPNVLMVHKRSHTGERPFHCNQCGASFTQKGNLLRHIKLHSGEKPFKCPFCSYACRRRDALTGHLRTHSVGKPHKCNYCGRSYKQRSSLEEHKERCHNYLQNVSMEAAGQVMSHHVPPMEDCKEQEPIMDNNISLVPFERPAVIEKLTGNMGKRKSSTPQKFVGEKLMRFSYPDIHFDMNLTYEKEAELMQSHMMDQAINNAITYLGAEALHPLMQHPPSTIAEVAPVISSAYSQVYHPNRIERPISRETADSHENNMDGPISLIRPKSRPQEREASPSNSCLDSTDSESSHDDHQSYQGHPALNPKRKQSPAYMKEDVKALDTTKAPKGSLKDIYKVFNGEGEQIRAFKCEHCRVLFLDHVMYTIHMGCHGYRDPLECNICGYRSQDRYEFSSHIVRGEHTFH
T2 sequence (Q96SW2 whole entry): as the sequence (Q96SW2 whole entry) above
T2 sequence (Q16531 whole entry partner): as the sequence (Q16531 whole entry partner) above

IKZF1% degradation at 100 nM (IKZF1) [%]	IKZF1% degradation at 1 μM (IKZF1) [%]	IKZF2% degradation at 100 nM (IKZF2) [%]	IKZF2% degradation at 1 μM (IKZF2) [%]	CK1α % degradation at 100 nM (CK1α) [%]	CK1α % degradation at 1 μM (CK1α) [%]	GSPT1% degradation at 100 nM (GSPT1) [%]	GSPT1% degradation at 1 μM (GSPT1) [%]	Dmax (IKZF1; Table 3) [%]	Dmax (IKZF2) [%]	DC50 (IKZF2) [nM]	Dmax (CK1α) [%]	DC50 (CK1α) [nM]	solubility [1] [mM]	Dmax (GSPT1; Table 3) [%]	DC50 (IKZF1; Table 3) [nM]	DC50 (GSPT1; Table 3) [nM]	Compound	degradation activity for CK1α and/or IKZF2, while sparing IKZF1 and/or GSPT1 (in words) (CK1α and/or IKZF2)
8.5	14.4	89.4	95.3	74.6	80.3	9.7	11.5	20.6	96.6	7	81.2	2.6	> 100	14.8			N#Cc1ccc2cc(C(=O)Nc3ccc4c(c3)CN(C3CCC(=O)NC3=O)C4=O)ccc2c1 (stereo not shown) [DEG-91, 6-cyano-N-(2-(2,6-dioxopiperidin-3-yl)-1-oxoisoindolin-5-yl)-2-naphthamide]	
2.4	4.1	52.6	87.1	60.1	74.1	1.6	−3.4	13.1	95.9	83.1	78	32	> 100	5.6			CN1C(=O)CCc2cc(C(=O)Nc3ccc4c(c3)CN(C3CCC(=O)NC3=O)C4=O)ccc21 (stereo not shown) [DEG-97, N-(2-(2,6-dioxopiperidin-3-yl)-1-oxoisoindolin-5-yl)-1-methyl-2-oxo-1,2,3,4-tetrahydroquinoline-6-carboxamide]	
6.7	8.3	87.6	94.5	76.2	80.1	5.3	5.0	14.5	95.9	7.9	80.2	2.9	> 100	12.8			COCOc1ccc2cc(C(=O)Nc3ccc4c(c3)CN(C3CCC(=O)NC3=O)C4=O)ccc2c1 (stereo not shown) [DEG-92, N-(2-(2,6-dioxopiperidin-3-yl)-1-oxoisoindolin-5-yl)-6-(methoxymethoxy)-2-naphthamide]	
7.7	9.1	86.7	94.1	76.5	80.1	16.3	24.8	17.2	95.4	10.4	78.9	2.8	> 100	33.5		1190	CSc1ccc2cc(C(=O)Nc3ccc4c(c3)CN(C3CCC(=O)NC3=O)C4=O)ccc2c1 (stereo not shown) [DEG-95, N-(2-(2,6-dioxopiperidin-3-yl)-1-oxoisoindolin-5-yl)-6-(methylthio)-2-naphthamide]	
4.3 ± 0.5	32.5 ± 0.4	57.1 ± 1.1	96 ± 0	59.5 ± 1.1	64.8 ± 0.6	9 ± 2.6	37.5 ± 2.1										COc1ccc2c(c1)OCC(C(=O)Nc1ccc3c(c1)CN(C1CCC(=O)NC1=O)C3=O)=C2 (stereo not shown) [DEG-74, N-(2-(2,6-dioxopiperidin-3-yl)-1-oxoisoindolin-5-yl)-7-methoxy-2H-chromene-3-carboxamide]	

Second part, the molecule before the results:

Compound	IKZF1% degradation at 100 nM (IKZF1) [%]	IKZF1% degradation at 1 μM (IKZF1) [%]	IKZF2% degradation at 100 nM (IKZF2) [%]	IKZF2% degradation at 1 μM (IKZF2) [%]	CK1α % degradation at 100 nM (CK1α) [%]	CK1α % degradation at 1 μM (CK1α) [%]	GSPT1% degradation at 100 nM (GSPT1) [%]	GSPT1% degradation at 1 μM (GSPT1) [%]	Dmax (IKZF1; Table 3) [%]	Dmax (IKZF2) [%]	DC50 (IKZF2) [nM]	Dmax (CK1α) [%]	DC50 (CK1α) [nM]	solubility [1] [mM]	Dmax (GSPT1; Table 3) [%]	DC50 (IKZF1; Table 3) [nM]	DC50 (GSPT1; Table 3) [nM]	degradation activity for CK1α and/or IKZF2, while sparing IKZF1 and/or GSPT1 (in words) (CK1α and/or IKZF2)
O=C1CCC(N2Cc3cc(NC(=O)c4cc5ccccc5o4)ccc3C2=O)C(=O)N1 (stereo not shown) [DEG-59, N-(2-(2,6-dioxopiperidin-3-yl)-1-oxoisoindolin-5-yl)benzofuran-2-carboxamide]	13.4 ± 0.6	26.5 ± 1.2	79.7 ± 0.1	92 ± 0.1	61.7 ± 2.4	63.3 ± 3.9	2 ± 3.6	−1 ± 3.4										good degradation activity
O=C1CCC(N2Cc3cc(NC(=O)C4=Cc5ccccc5OC4)ccc3C2=O)C(=O)N1 (stereo not shown) [DEG-52, N-(2-(2,6-dioxopiperidin-3-yl)-1-oxoisoindolin-5-yl)-2H-chromene-3-carboxamide]	15.2 ± 0.2	29.2 ± 0.5	83.9 ± 0.4	93.8 ± 0.1	68.4 ± 0.2	72.8 ± 0.1	10.5 ± 1.7	12.2 ± 1.9										good degradation activity
O=C1CCC(N2Cc3cc(NC(=O)Cc4cccc5ccccc45)ccc3C2=O)C(=O)N1 (stereo not shown) [DEG-67, N-(2-(2,6-dioxopiperidin-3-yl)-1-oxoisoindolin-5-yl)-2-(naphthalen-1-yl)acetamide]	97.2 ± 0.1	98.1 ± 0.1	92.2 ± 0.1	94.6 ± 0	64.4 ± 0.5	62.8 ± 0.5	25.3 ± 0.5	30.9 ± 1										good degradation activity
O=C1CCC(N2Cc3cc(NC(=O)c4cccc(Oc5ccccc5)c4)ccc3C2=O)C(=O)N1 (stereo not shown) [DEG-55, N-(2-(2,6-dioxopiperidin-3-yl)-1-oxoisindolin-5-yl)-3-phenoxybenzamide]	62.1 ± 0.2	86.8 ± 0.4	73.9 ± 0.4	91.1 ± 0.1	57.6 ± 1.7	67.4 ± 1.4	8.8 ± 0.8	14 ± 1.8										good degradation activity
C[C@H](NC(=O)c1ccccc1)C(=O)Nc1ccc2c(c1)CN(C1CCC(=O)NC1=O)C2=O (stereo partly drawn) [DEG-98, N-((2S)-1-((2-(2,6-dioxopiperidin-3-yl)-1-oxoisoindolin-5-yl)amino)-1-oxopropan-2-yl)benzamide]	50.9	79.7	35.8	68.1	18.2	41.2	5.5	6.2	88	80.5	143	54.1	175	> 100	0	72		
O=C1CCC(N2Cc3cc(NC(=O)c4ccc(Oc5ccccc5)cc4)ccc3C2=O)C(=O)N1 (stereo not shown) [DEG-61, N-(2-(2,6-dioxopiperidin-3-yl)-1-oxoisoindolin-5-yl)-4-phenoxybenzamide]	5.2 ± 1	9.6 ± 0.5	78.4 ± 0.8	91.4 ± 0.1	60.9 ± 0.7	65.8 ± 1.2	10.2 ± 2.8	16.9 ± 2.3										good degradation activity
O=C(/C=C/c1ccccc1)Nc1ccc2c(c1)CN(C1CCC(=O)NC1=O)C2=O (stereo not shown) [DEG-56, N-(2-(2,6-dioxopiperidin-3-yl)-1-oxoisoindolin-5-yl)cinnamamide]	13.1 ± 0.8	29.4 ± 0.3	70.8 ± 0.3	89.6 ± 0.1	60.2 ± 2.3	67 ± 1.1	7.6 ± 1.5	11.1 ± 1.3										good degradation activity
CC(=O)N1CCC[C@H]1C(=O)Nc1ccc2c(c1)CN(C1CCC(=O)NC1=O)C2=O (stereo partly drawn) [DEG-96, (2S)-1-acetyl-N-(2-(2,6-dioxopiperidin-3-yl)-1-oxoisoindolin-5-yl)pyrrolidine-2-carboxamide]	3.6	5.0	21.4	57.0	9.2	26.3	8.6	10.1	8.3	79.5	340	40.3	503	> 100	14.2			
